The text below walks through data of ChEMBL document CHEMBL1201862, “PubChem BioAssay data set” (2004).

Among the test systems are LOX IMVI; RXF 393; OVCAR-3; U-251; SK-OV-3; OVCAR-4; HOP-62; OVCAR-8; SF-268; UACC-257; SK-MEL-2; RPMI-8226; KM12; HT-29; SW-620; SNB-19; NCI-H522; A549; OVCAR-5.
Assay in all cases: inhibition of tumour cell growth, NCI panel, 48 h

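All cell lines were grown in 96-well plates and treated with compound for 48 hours. GI50 marks 50% less growth.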 Active and inactive are the calls of the source. Rule as the data show it: active = GI50 up to about 1.1 µM and inactive = higher.

In the case of `O=C(NCCN1CCOCC1)c1ccc2cc(C(=O)N3CC(CCl)c4ccc([N+](=O)[O-])cc43)[nH]c2c1` (configuration not stated), the GI50 was 2.63 µM (inactive) in the assay on LOX IMVI; 5.01 µM (inactive) with RXF 393; 16.9 µM (inactive) with OVCAR-3; 9.66 µM (inactive) in the assay on U-251; 16.1 µM (inactive) in the assay on SK-OV-3; 8.77 µM (inactive) with OVCAR-4. Besides, the GI50 is 17.1 µM (inactive) in the assay with HOP-62; 12.1 µM (inactive) in the assay on OVCAR-8; 9.84 µM (inactive) with SF-268; 25 µM (inactive) with UACC-257; 16 µM (inactive) in the assay with SK-MEL-2; 2.43 µM (inactive) with RPMI-8226. Moreover, the GI50 was 23.1 µM (inactive) in the assay on KM12; 5.14 µM (inactive) in the assay on HT-29; 20.1 µM (inactive) in the assay on SW-620; 12 µM (inactive) in the assay on SNB-19; 4.67 µM (inactive) in the assay on NCI-H522; 5.19 µM (inactive) with A549. Moreover, the GI50 in the assay on OVCAR-5 was > 100 µM (inactive).

For `CC(=O)C1=C(C)N(c2ccc(C)cc2)C2(O)C=CC(O)=C3C(=O)c4ccccc4C(=O)C312` (configuration not stated), the GI50 in the assay on LOX IMVI was 6.95 µM (inactive); with RXF 393 it was 9.04 µM (inactive); in the assay with OVCAR-3, 3.91 µM (inactive); with U-251, 18.5 µM (inactive); in the assay with SK-OV-3, > 100 µM (inactive); in the assay on OVCAR-4, 12.6 µM (inactive). For the same molecule, the GI50 in the assay on HOP-62 was 26.9 µM (inactive); with OVCAR-8 it was 16.1 µM (inactive); in the assay with SF-268 it was 15.9 µM (inactive); with UACC-257, 10.6 µM (inactive); in the assay on SK-MEL-2, 7.36 µM (inactive); with RPMI-8226 it was 3.27 µM (inactive). Moreover, the GI50 was 7.41 µM (inactive) in the assay with KM12; 3.89 µM (inactive) with HT-29; 4.81 µM (inactive) with SW-620; 22.6 µM (inactive) with SNB-19; 13.7 µM (inactive) with NCI-H522; 18.6 µM (inactive) with A549. In the assay on OVCAR-5, the GI50 was 23.7 µM (inactive).

In the case of `Cc1ccc(NC(=O)CC(=O)n2nc(-c3ccccc3)c(/N=N\c3ccccc3[N+](=O)[O-])c2-c2ccccc2)cc1`, the GI50 was 93.5 µM (inactive) in the assay with LOX IMVI; 55.1 µM (inactive) in the assay with RXF 393; 82.8 µM (inactive) with OVCAR-3; 52.5 µM (inactive) with U-251; 80.2 µM (inactive) in the assay on SK-OV-3; 45.3 µM (inactive) with OVCAR-4. The GI50 with HOP-62 is 82.2 µM (inactive); in the assay on OVCAR-8 it was 67.5 µM (inactive); in the assay with SF-268, 51.2 µM (inactive); in the assay on UACC-257, > 100 µM (inactive); in the assay on SK-MEL-2 it was > 100 µM (inactive); in the assay on RPMI-8226, > 100 µM (inactive). The GI50 is > 100 µM (inactive) in the assay on KM12; > 100 µM (inactive) with HT-29; > 100 µM (inactive) in the assay with SW-620; 56.6 µM (inactive) in the assay on SNB-19; 74.8 µM (inactive) in the assay on NCI-H522; 90.2 µM (inactive) with A549. In addition, the GI50 in the assay with OVCAR-5 is > 100 µM (inactive).

On to `Cc1cc(S(N)(=O)=O)c(S/C(=N\Nc2ccc([N+](=O)[O-])cc2)c2ccc(Cl)cc2)cc1Cl`, for which the GI50 was 2.1 µM (inactive) with LOX IMVI; 1.75 µM (inactive) in the assay on RXF 393; 1.74 µM (inactive) with OVCAR-3; 2.25 µM (inactive) in the assay on U-251; 1.96 µM (inactive) in the assay on SK-OV-3; 1.71 µM (inactive) in the assay on OVCAR-4. Further, the GI50 was 3.18 µM (inactive) with HOP-62; 2.3 µM (inactive) with SF-268; 2.72 µM (inactive) with UACC-257; 2.76 µM (inactive) in the assay on SK-MEL-2; 2.58 µM (inactive) in the assay on RPMI-8226; 1.94 µM (inactive) in the assay on KM12. Also, the GI50 is 1.87 µM (inactive) with HT-29; 3.22 µM (inactive) in the assay on SW-620; 3.33 µM (inactive) in the assay on SNB-19; 3.21 µM (inactive) with NCI-H522; 2.55 µM (inactive) with A549; 2.64 µM (inactive) in the assay on OVCAR-5.

As to `CCc1nc2ccccc2c(=O)n1/N=C(\N=N\c1ccc(Cl)cc1)c1ccccc1`, the GI50 was 16.9 µM (inactive) with LOX IMVI; 14.2 µM (inactive) in the assay with RXF 393; 20.7 µM (inactive) with OVCAR-3; 26.9 µM (inactive) in the assay on U-251; 23.7 µM (inactive) in the assay on SK-OV-3; 23.5 µM (inactive) with OVCAR-4. Also, the GI50 is 24.3 µM (inactive) in the assay on HOP-62; 35.2 µM (inactive) with OVCAR-8; 17.3 µM (inactive) in the assay on SF-268; 13.2 µM (inactive) with UACC-257; 32.7 µM (inactive) with SK-MEL-2; 30.7 µM (inactive) in the assay on RPMI-8226. For the same molecule, the GI50 with KM12 is 18.2 µM (inactive); with HT-29 it was 15.7 µM (inactive); in the assay on SW-620 it was 31.3 µM (inactive); in the assay with SNB-19, 23.4 µM (inactive); in the assay with NCI-H522, 20.1 µM (inactive); in the assay on A549, 23.3 µM (inactive). Further, the GI50 in the assay on OVCAR-5 was > 100 µM (inactive).

For `Cc1cc(C)nc(SCC(=O)OC2CC(C)CCC2C(C)C)n1` (configuration not stated), the GI50 with LOX IMVI was 20 µM (inactive); in the assay with RXF 393 it was 16.8 µM (inactive); in the assay on OVCAR-3, 14.3 µM (inactive); in the assay on U-251, 22.5 µM (inactive); in the assay on SK-OV-3, 23.9 µM (inactive); in the assay on OVCAR-4 it was 20.9 µM (inactive). Further, the GI50 was 11.6 µM (inactive) in the assay on HOP-62; 38.3 µM (inactive) in the assay on OVCAR-8; 37 µM (inactive) in the assay on SF-268; 19.6 µM (inactive) in the assay on UACC-257; 21.8 µM (inactive) with SK-MEL-2; 19.3 µM (inactive) in the assay on RPMI-8226. The GI50 with KM12 is 20.1 µM (inactive); in the assay with HT-29 it was 16.4 µM (inactive); with SW-620, 19.9 µM (inactive); with SNB-19, 18.7 µM (inactive); in the assay with NCI-H522 it was 18.8 µM (inactive); with A549 it was 22.6 µM (inactive). Also, in the assay on OVCAR-5, the GI50 is 22.3 µM (inactive).

`CC1CC(C)C2OC2(C)C[C@H](C)C(=O)NC(C)C(=O)N(C)[C@H](Cc2c(Br)[nH]c3ccccc23)C(=O)N[C@@H](c2ccc(O)cc2)CC(=O)O1` (some centres not stated): the GI50 in the assay on LOX IMVI is 0.0466 µM (active); in the assay on RXF 393, 1.47 µM (inactive); in the assay with OVCAR-3 it was 0.49 µM (active); in the assay on U-251, 0.0404 µM (active); in the assay on SK-OV-3 it was 0.433 µM (active); in the assay on OVCAR-4 it was 0.22 µM (active). The GI50 with HOP-62 was 0.33 µM (active); in the assay on OVCAR-8, 4.89 µM (inactive); in the assay on SF-268, 0.336 µM (active); in the assay on UACC-257 it was 0.418 µM (active); in the assay on SK-MEL-2 it was 0.033 µM (active); in the assay on RPMI-8226, 0.0355 µM (active). For the same molecule, the GI50 is 0.249 µM (active) with KM12; 0.106 µM (active) in the assay with HT-29; < 0.0262 µM (active) in the assay on SW-620; 0.0661 µM (active) with SNB-19; 0.0504 µM (active) with NCI-H522; 0.28 µM (active) with A549. In addition, the GI50 in the assay on OVCAR-5 is 0.824 µM (active).

For `O=C(/C=C/c1c(O)ccc2ccccc12)c1ccc2ccccc2c1`, the GI50 in the assay with LOX IMVI, in the assay on RXF 393, with OVCAR-3, in the assay with U-251, in the assay on SK-OV-3 and in the assay on OVCAR-4 was > 100 µM (inactive) throughout. Moreover, the GI50 with HOP-62, in the assay on OVCAR-8, with SF-268, in the assay on UACC-257, with SK-MEL-2 and with RPMI-8226 was > 100 µM (inactive) throughout. Besides, the GI50 in the assay on KM12, in the assay on HT-29, in the assay on SW-620, with SNB-19, in the assay with NCI-H522 and with A549 was > 100 µM (inactive) in each case. For the same molecule, the GI50 in the assay with OVCAR-5 was > 100 µM (inactive).

Take `NN=C1/C(=C\c2ccccc2)CCC/C1=C/c1ccccc1`: the GI50 with LOX IMVI was 26.2 µM (inactive); in the assay on RXF 393 it was 31 µM (inactive); in the assay on OVCAR-3, 32.3 µM (inactive); in the assay with U-251, 34.9 µM (inactive); with SK-OV-3, > 100 µM (inactive); in the assay on OVCAR-4, 49.4 µM (inactive). Besides, the GI50 was 32.8 µM (inactive) in the assay on HOP-62; 50.4 µM (inactive) with OVCAR-8; 34.3 µM (inactive) with SF-268; 30.8 µM (inactive) in the assay with UACC-257; 36.6 µM (inactive) in the assay with SK-MEL-2; 16.4 µM (inactive) with RPMI-8226. Moreover, the GI50 with KM12 is 34.1 µM (inactive); in the assay on SW-620, 42.5 µM (inactive); with SNB-19 it was 44 µM (inactive); with NCI-H522, 15.4 µM (inactive); in the assay on A549, 33.3 µM (inactive); in the assay on OVCAR-5 it was 94 µM (inactive).

`Cc1c(N2CCN(C)CC2)nc2ccc(Cl)cc2c1-c1ccccc1`: the GI50 in the assay with LOX IMVI is 14.7 µM (inactive); with RXF 393, 15.9 µM (inactive); in the assay with OVCAR-3, 24.3 µM (inactive); with U-251 it was 17.3 µM (inactive); in the assay with SK-OV-3 it was 47.4 µM (inactive); with OVCAR-4, 17.7 µM (inactive). Also, the GI50 was 18.2 µM (inactive) with HOP-62; 16.6 µM (inactive) in the assay on OVCAR-8; 29.4 µM (inactive) with SF-268; 17.9 µM (inactive) in the assay with UACC-257; 17.3 µM (inactive) with SK-MEL-2; 18.9 µM (inactive) in the assay on RPMI-8226. In addition, the GI50 with KM12 is 12.4 µM (inactive); with HT-29, 14.3 µM (inactive); in the assay on SW-620 it was 16.8 µM (inactive); in the assay with SNB-19, 25.2 µM (inactive); in the assay with NCI-H522 it was 19.9 µM (inactive); in the assay with A549, 18.4 µM (inactive).
